Experimental data taken from a melting point compilation (Tetko et al.; mined from patent text by program, amines drawn as free bases though some values may be those of a salt).

Work on `CN(C(=O)OC(C)(C)C)C1CC=C(c2c[nH]c3cc([N+](=O)[O-])ccc23)CC1` (stereo unspecified) yielded a melting point of 208 to 210 °C. Molecule `NC(=O)c1cc(Br)ccc1Nc1ccncc1` has a melting point of 298 to 299 °C. `Cn1cc(C(=O)NCc2ccc(Cl)cc2)c(=O)c2cc(CN3CCOC[C@@H]3[C@H](O)c3ccccc3)sc21` showed a melting point of 129 to 134 °C. `CSc1cccc(S(N)(=O)=O)c1` showed a melting point of 126 to 127 °C. `CCOC(=O)Nc1ccc2nc(OCC)oc(=O)c2c1` gave a melting point of 191 to 193 °C. `CN1CCN(c2ccnc3c(NC(=O)c4c(Cl)cccc4Cl)cc(F)cc23)C1=O` gave a melting point of 268 to 272 °C. `O=[N+]([O-])c1ccc(Sc2cccc3cnccc23)cc1NCc1ccccc1` showed a melting point of 153 to 154 °C. For `CC(Oc1ncn(-c2ccc(Br)cc2)n1)C(=O)O` (stereo unspecified), the melting point was 195 to 197 °C. For `CCCN(CC1CC1)c1nc(C)nc2c1CCCC2(C)c1ccc(Cl)cc1` (stereo unspecified), the melting point was 171 to 172 °C. `COc1ccc(Oc2cc3nc(-c4ccccc4)oc3cc2[N+](=O)[O-])cc1` showed a melting point of 142 to 146 °C. For `Cc1[nH]c(-c2ccccc2)nc1C(C)O` (stereo unspecified), the melting point was 189 to 190 °C. Molecule `CCCCCCCCCCCCCCc1ccc(C(=O)OCC)[nH]1` has a melting point of 60 to 63 °C. Work on `ClCc1coc(C=C2c3ccccc3-c3ccccc32)n1` yielded a melting point of 175 to 176 °C. With `ON=Cc1ccc(-c2ccc(O)cc2)c(Cl)c1Cl` the melting point was 208 to 210 °C. Work on `COc1ccc2cccc3c2c1C(CCNC(C)=O)CC3` (stereo unspecified) yielded a melting point of 98 °C. `CC(C)(C)c1cc(C(=O)COc2ccc(Cl)cc2Oc2ccc(Cl)cc2Cl)cc(C(C)(C)C)c1O` showed a melting point of 111 to 114 °C. Molecule `Cc1ccc2cc(-c3ccccc3)ccc2n1` has a melting point of 95 °C. In the case of `CC1(C)CC(=O)Nc2cc3nc(-c4ccc(OS(C)(=O)=O)cc4)[nH]c3cc21`, the melting point is reported as 209 to 215 °C. Work on `CCCn1c(=O)c2[nH]c(C3CCC(C(=O)OC)C3)nc2n(CCC)c1=O` (stereo unspecified) yielded a melting point of 188 to 194 °C. Molecule `Cc1cnc2c(=O)[nH]c3cc(Cl)c(Cl)cc3n12` has a melting point greater than 300 °C. For `O=S(=O)(c1ccc(N2CCCCCC2)cc1)N1CC(O)CC1=S` (stereo unspecified), the melting point was 138 to 139 °C. `COc1ccc(-c2ccc(C(=O)Nc3ccc4cc(CN5CCCC5)cnc4c3C)cc2)cc1` gave a melting point of 190 to 192 °C. Molecule `COc1ccc(CNC(=O)c2c(C)c([N+](=O)[O-])cc3nc(OC)c(OC)nc23)cc1` has a melting point of 187 to 189 °C. `CC1=C(C(=O)c2ccc3c(c2)CN(C(N)=O)CC3)C(C)(C)CCC1` showed a melting point of 92.5 to 93.6 °C. `Nn1c2c(c3ccccc3c1=O)C(=O)c1ccccc1-2` gave a melting point of 272 to 274 °C. In the case of `Clc1ccc(-c2noc(CCC#Cc3ccccn3)n2)c(Cl)c1`, the melting point is reported as 77 to 78 °C. In the case of `O=C(O)C1(CO)CCc2cc(C3CCCCC3)c(Cl)cc21` (stereo unspecified), the melting point is reported as 195 to 197 °C. For `O=c1c2ccc(F)cc2ncn1Cc1ccccc1`, the melting point was 110 to 111 °C. `CCOC(=O)C=Cc1ccc(-c2ccccc2)cc1` gave a melting point of 88.6 °C. `Cc1cccc(-c2nc(N)ncc2-c2ccc(=O)n(C(C)C)n2)c1` showed a melting point of 198 °C. `OP(O)C(NC(c1ccccc1)c1ccccc1)C1CCCCC1` (stereo unspecified) gave a melting point of 199 °C. `CCCCCCCCc1ccc(C(=S)c2ccc(OCCCC)cc2O)cc1` showed a melting point of 77 to 79 °C. For `Cc1c(C(=O)Nc2ccc(N3CCC(N4CCOCC4)CC3)c(C#N)c2)cnn1-c1ccc(Br)cc1`, the melting point was 250 to 252 °C. `CN(C)C(=O)C1Cc2c(c(Cl)cc(F)c2N2C(=O)C3=C(CCCC3)C2=O)O1` (stereo unspecified) gave a melting point of 190 to 193 °C. `CCOC(=O)c1cc([N+](=O)[O-])ccc1O` gave a melting point of 97 °C. `CCCCNC(=O)Oc1ccc2c(N3CCN(CCCC(=O)c4ccc(F)cc4)CC3)noc2c1` showed a melting point of 137 to 141 °C. Work on `NC(=O)N1CC(Oc2ccccc2)C1` yielded a melting point of 179 to 186 °C. With `Cc1cc(-c2ccc(C(F)(F)F)c(C)c2)nc(-c2cccc(-c3cccc(S(N)(=O)=O)c3)c2)n1` the melting point was 222 °C. With `CC(=O)NC[C@H]1CN(c2ccc(C(=O)c3cnc4c(Cl)cc(Cl)cn34)cc2)C(=O)O1` the melting point was 228 to 229 °C. `COc1cc(-c2ccccc2C(F)(F)F)c(Cl)cc1C(=O)N1Cc2ccc(C(=O)N(C)CC(O)C(O)C(O)C(O)CO)n2Cc2ccccc21` (stereo unspecified) gave a melting point of 150 to 151 °C. With `CCC(=O)c1ccccc1CS(=O)(=O)NC(=O)Nc1nc(OC)cc(OC)n1` the melting point was 155 to 158 °C. With `O=C1c2cc(Cl)c(Cl)cc2C(=O)N1CCN1CCC(c2noc3cc(F)ccc23)CC1` the melting point was 132 to 134 °C. `COc1c(C=O)c2cc(Cl)c(Cl)cc2n1C1OC(CO)C(O)C1O` (stereo unspecified) gave a melting point of 198 to 199 °C. Molecule `CNC1=Nc2ccc(C3=NNC(=O)CC3)cc2C1(C)C` has a melting point of 320 to 324 °C. Molecule `CC(c1ccccc1)N1CC(CF)(C(=O)N(Cc2ccccc2)Cc2ccccc2)CC1=O` (stereo unspecified) has a melting point of 113 to 115 °C. In the case of `CCn1c(=O)c2c(nc(/C=C/c3cc(C)c(OC)cc3C)n2C)n(CC)c1=O`, the melting point is reported as 235 to 236 °C. `COc1cc(OC)c(OC(=O)CS(=O)(=O)Nc2c(C(C)C)cccc2C(C)C)c(OC)c1` showed a melting point of 167 to 170 °C. Work on `COc1ccc(CNc2ccccc2C)cc1O` yielded a melting point of 104 to 105 °C. `COc1cc(C(C)=O)ccc1OCCN1C2CCC1CC(c1n[nH]c3ccccc13)C2` (stereo unspecified) showed a melting point of 154 to 155 °C. With `Cc1ncnc(Nc2ccc(C(=O)CCC3CCN(Cc4ccccc4)CC3)cc2)c1C` the melting point was 168 to 170 °C. In the case of `Nc1ncc(Br)cc1Cl`, the melting point is reported as 94 to 96 °C. `CCOC(=O)c1ccccc1N(CC(=O)OC(C)(C)C)C(=O)CN1C(=O)c2ccccc2C1=O` showed a melting point of 127 °C. Molecule `CN=C(O)c1cc([N+](=O)[O-])cc([N+](=O)[O-])c1C(=O)O` has a melting point of 174 to 176 °C. Molecule `CC(C)N1C(=O)c2ccccc2N(C(=O)c2cc(Oc3ccc(C(F)(F)F)cc3Cl)ccc2[N+](=O)[O-])S1(=O)=O` has a melting point of 125 to 128 °C. Molecule `CC(C)C[C@H](NC(=O)[C@H](Cc1c[nH]c2ccccc12)NC(=O)OC(C)(C)C)C(=O)O` has a melting point of 109 to 111 °C. Molecule `O=C(O)Cc1cccc(Oc2ccc(Cl)cc2)c1[N+](=O)[O-]` has a melting point of 167 to 170 °C. Work on `COc1cc(OCc2ccncc2)ccc1/C=C/c1cc(/C=C/c2cccc3cc[nH]c23)n[nH]1` yielded a melting point of 201 to 206 °C. For `CCc1cc(CCCc2ccc(CO)c(CO)c2)ccc1O`, the melting point was 82 °C. `COC(=O)C(C(=O)OC)c1ccccc1C(=O)O` gave a melting point of 119 to 120 °C. `N#Cc1ccc(OC2CCOC2=O)cc1C(F)(F)F` (stereo unspecified) showed a melting point of 107 to 108 °C. Work on `COc1cc2[nH]c(=O)n(-c3ccccc3C)c(=O)c2cc1OC` yielded a melting point of 282 to 284 °C. Molecule `Cn1cc(C(F)(F)F)ccc1=O` has a melting point of 125 to 129 °C. For `CC(Oc1ncn(-c2cccc(Br)c2)n1)C(=O)O` (stereo unspecified), the melting point was 198 to 200 °C. For `CN(Cc1ccc2c(Br)c(OCC(=O)O)ccc2c1)C(=O)c1oc2ccccc2c1CCc1ccccc1`, the melting point was 119 to 122 °C. Work on `COc1cccc(NS(=O)(=O)c2sccc2C2OCCO2)c1` yielded a melting point of 112 to 114 °C. `CCCCN(c1nc(Cl)nc(N(CCCC)C2CC(C)(C)N(OC3CCCCC3)C(C)(C)C2)n1)C1CC(C)(C)N(OC2CCCCC2)C(C)(C)C1` showed a melting point of 75 to 82 °C. Molecule `CCc1cccc(CSC)c1NC(=O)CC1c2ccccc2Oc2ccccc21` has a melting point of 122 to 123 °C. For `Cc1cccc(COc2nn3c(-c4ccccc4)nnc3c3ccccc23)n1`, the melting point was 186 to 187 °C. With `Cc1ccc(-c2sc(N)c(C(=O)c3ccc(Cl)cc3)c2CN(C2CCCCC2)C2CCCCC2)cc1` the melting point was 191 to 194 °C. In the case of `CC(=O)NC1=C(N)C(=O)c2ccccc2C1=O`, the melting point is reported as 233 to 234 °C. `COC(=O)C=Cc1ccc(OCCCCl)cc1` gave a melting point of 58 to 59 °C. `Cc1cc(N(C)C)ccc1-c1c(O)c(=O)c1=O` gave a melting point greater than 114 °C. For `OC(c1ccccc1)(C1CC1)C(c1cccc(Cl)c1)n1ccnc1` (stereo unspecified), the melting point was 140 °C. With `COc1cc2c(cc1C)CCC=C2c1ncc[nH]1` the melting point was 197 to 229 °C. In the case of `O=C1CC2Sc3nc4ccccc4n3C2(c2ccc(Cl)cc2)O1` (stereo unspecified), the melting point is reported as 115 to 117 °C. For `C=CCC(C#N)(C#N)Cc1ccc(OCC)cc1`, the melting point was 84.3 °C. `CCOC(=O)C(Cc1ccc(OCCc2nc(-c3ccccc3)oc2C)cc1)C(=O)O` (stereo unspecified) showed a melting point of 95.1 to 96 °C. In the case of `NCC1(O)C2CC3CC(C2)CC1C3` (stereo unspecified), the melting point is reported as 154 to 156 °C. For `COc1ccc(C(CCc2ccccc2)C(=O)O)cc1` (stereo unspecified), the melting point was 92 to 97 °C. Molecule `O=c1ncn(Cc2ccc(Cl)cc2)c2cc(-c3ccc(OCc4cccnc4)cc3)sc12` has a melting point of 255 to 257 °C. For `CCCCCNc1nc(C)c(C(=O)c2ccc(Cl)c([N+](=O)[O-])c2)s1`, the melting point was 99 to 104 °C. Work on `Cc1cc2c(cc1C(C)O)OCO2` (stereo unspecified) yielded a melting point of 61 to 62 °C. In the case of `CC(O)C(NC(=O)OCc1ccccc1)C(=O)NN` (stereo unspecified), the melting point is reported as 135 °C. Molecule `O=C(NCc1ccccc1)C(Cc1c[nH]c2ccccc12)NC(=O)C(F)(F)F` (stereo unspecified) has a melting point of 186 to 188 °C. In the case of `COc1ccc(-c2nc3cc(F)ccc3s2)cc1OC(C)=O`, the melting point is reported as 190 °C. `Cn1c2c(c3ccccc3c1=O)C(=O)c1cc3c(cc1-2)OCO3` showed a melting point of 310 to 312 °C. Work on `C[C@@H]1CCNC[C@@H]1N(C)c1nccc2[nH]ccc12` yielded a melting point of 127 °C. For `CCOC(=O)[C@H](CNC(=O)OC(C)(C)C)NS(=O)(=O)N(C)C`, the melting point was 65 to 67 °C. Work on `CC12CCC(O)CC1=CCC1C2CCC2(C)C(n3ccnc3)=CCC12` (stereo unspecified) yielded a melting point of 220 to 223 °C. `FC(F)(F)c1ccc(-c2cc(Oc3ccc4cccnc4c3)ncn2)c(NCC2CCCCC2)n1` showed a melting point of 151 to 152 °C. Work on `CCCC1=C(C(=O)OCC)C(c2cccc(F)c2F)c2c[nH]nc2N1` (stereo unspecified) yielded a melting point of 207 °C. `CCOC(=O)Cc1c[nH]c2nc(Nc3ccc(OC(C)C)cc3)nn2c1=O` showed a melting point of 235 to 240 °C. `Clc1cccc2c1sc1ncnn12` showed a melting point of 203 °C. `CCSc1cc(C)nc(SCC)c1NC(=O)CCCCCCCSc1nc2ccccc2o1` gave a melting point of 82 to 84 °C. Molecule `COc1ccc2c(c1)cc(C=O)n2S(=O)(=O)c1ccccc1` has a melting point of 123 to 124 °C. For `O=C(Nc1ccc2nc(CN3CCCCC3)ccc2c1)c1ccc(-c2ccc(F)cc2F)cc1`, the melting point was 181 to 182 °C. In the case of `Cc1cnc2c(Br)cnn2c1-c1cccnc1`, the melting point is reported as 166 to 168 °C. Work on `CC(C)(C)NS(=O)(=O)c1cccc2c1CSC2=O` yielded a melting point of 121 to 124 °C. For `Nc1cccc(-c2ccc(CCN3CCN(c4nnnn4-c4ccccc4)CC3)cc2)n1`, the melting point was 212 to 214 °C. `O=C(Nc1c(C(O)(C(F)(F)F)C(F)(F)F)ccc2ccccc12)c1ccccc1Cl` gave a melting point of 209 to 211 °C. Work on `Cc1cccc2c(C#N)cn(C)c12` yielded a melting point of 116 °C.
